Experimental findings from DBAASP are described below.

Each structure is given as a SMILES string. ≈ marks a conversion by molar mass, not a printed value. Where “and” joins values, the source holds several entries; their conditions need not be identical. Equal values may be shown once. Some results are limits rather than exact numbers.

What all share (assay): ≥ marks a high value that may be exact or a test limit, other limits are often not marked, values filed in µg/mL are converted to µM
In test [1] the test system is Candida tropicalis IOC 4560.
Test [2] deals with Bacillus megaterium ATCC 10778.
Test [3] has as its system Staphylococcus aureus ATCC 29213.
In test [4] the test system is Serratia marcescens ATCC 4112.
In test [5] the test system is Escherichia coli SBS 363.
For test [6], the system named is Micrococcus luteus A270.
The subject of test [7] is Staphylococcus epidermidis ATCC 12228.
Test [8] relates to Enterobacter cloacae beta-12.
The test system of test [9] is Candida albicans MDM8.
Test [10] relates to Bacillus subtilis CMCC 63501.
For test [11], the system named is Salmonella typhimurium ATCC 7731.
Test [12] has as its system Listeria monocytogenes CGMCC 1.1075.
Test [13] concerns Escherichia coli K99.
In test [14] the test system is Bacillus cereus CGMCC 1.932.
In test [15] the test system is Staphylococcus aureus ATCC 43300.
In test [16] the test system is Salmonella enterica subsp. enterica serovar Pullorum ATCC 7913.
Test [17] has as its system Pseudomonas aeruginosa ATCC 27853.
In test [18] the test system is Escherichia coli 078.
Test [19] relates to Escherichia coli UB1005.
The test system of test [20] is Enterococcus faecalis ATCC 29212.
Test [21] deals with Acinetobacter baumannii.
For test [22], the system named is Staphylococcus aureus ATCC 25923.
Test [23] has as its system Salmonella enterica subsp. enterica serovar Typhimurium ATCC 14028.
The test system of test [24] is Escherichia coli K88.
Test [25] has as its system Pseudomonas aeruginosa PAO1.
Test [26] concerns Candida albicans CGMCC 2.2086.
Test [27] relates to Salmonella enterica subsp. enterica serovar Typhimurium C77-31.
Test [28] deals with Candida parapsilosis CGMCC 2.3989.
Test [29] relates to Candida tropicalis CGMCC 2.1975.
Test [30] relates to Candida albicans.
The test system of test [31] is Salmonella enterica subsp. enterica serovar Choleraesuis CVCC 503.
The test system of test [32] is Pseudomonas aeruginosa H1001.

As for `CC(C)C[C@H](NC(=O)[C@H](C)NC(=O)CNC(=O)[C@H](CC(C)C)NC(=O)[C@@H](N)Cc1ccccc1)C(=O)N[C@@H](Cc1c[nH]c2ccccc12)C(=O)N[C@@H](CCCCN)C(=O)N[C@H](C(=O)N[C@@H](C)C(=O)N[C@@H](CCCCN)C(=O)N[C@@H](CCCCN)C(=O)N[C@H](C(=O)N[C@@H](Cc1ccccc1)C(N)=O)C(C)C)C(C)C` [FLGALWKVAKKVF], the MIC in [1] was found to be 0.8 µM (≈ 1.2 µg/mL); in [2], 0.8 µM (≈ 1.2 µg/mL); in test [3], 0.8 µM (≈ 1.2 µg/mL); in test [4], 0.2 µM (≈ 0.301 µg/mL); in [5], 3.1 µM (≈ 4.67 µg/mL); in test [6] it was 0.8 µM (≈ 1.2 µg/mL). For the same compound, the MIC in test [7] was found to be 6.3 µM (≈ 9.49 µg/mL); in [8] it was 6.3 µM (≈ 9.49 µg/mL); in test [9], 1.6 µM (≈ 2.41 µg/mL).

As for `CC(C)C[C@H](NC(=O)[C@H](CCCN=C(N)N)NC(=O)[C@H](Cc1c[nH]c2ccccc12)NC(=O)[C@H](CCCN=C(N)N)NC(=O)[C@H](Cc1c[nH]c2ccccc12)NC(=O)[C@H](Cc1c[nH]c2ccccc12)NC(=O)[C@H](Cc1c[nH]c2ccccc12)NC(=O)[C@H](CCCN=C(N)N)NC(=O)[C@H](Cc1c[nH]c2ccccc12)NC(=O)[C@H](CCCN=C(N)N)NC(=O)CN)C(N)=O` [GRWRWWWRWRL], the MIC in [10] amounted to 4 µM (≈ 6.97 µg/mL); in test [11], 4 µM (≈ 6.97 µg/mL); in [12], 2 µM (≈ 3.49 µg/mL); in [13], 4 µM (≈ 6.97 µg/mL); in [14], 8 µM (≈ 13.9 µg/mL); in [15], 2 µM (≈ 3.49 µg/mL). Moreover, the MIC in test [16] is 2 µM (≈ 3.49 µg/mL); in [17], 4 µM (≈ 6.97 µg/mL); in [18], 2 µM (≈ 3.49 µg/mL); in [19], 2 µM (≈ 3.49 µg/mL); in [20], more than 32 µM; in [21] it was 1 µM (≈ 1.74 µg/mL). In addition, the MIC in [22] was found to be 2 µM (≈ 3.49 µg/mL); in test [23] it was 4 µM (≈ 6.97 µg/mL); in test [7] it was 2 µM (≈ 3.49 µg/mL); in test [24] it was 2 µM (≈ 3.49 µg/mL); in [25], 4 µM (≈ 6.97 µg/mL).

On to `C[C@H](NC(=O)[C@H](Cc1c[nH]c2ccccc12)NC(=O)[C@H](Cc1c[nH]c2ccccc12)NC(=O)[C@H](CCCN=C(N)N)NC(=O)[C@H](CCCN=C(N)N)NC(=O)[C@H](Cc1c[nH]c2ccccc12)NC(=O)[C@H](CCCN=C(N)N)NC(=O)[C@H](CCCN=C(N)N)NC(=O)[C@H](Cc1c[nH]c2ccccc12)NC(=O)[C@H](Cc1c[nH]c2ccccc12)NC(=O)CN)C(N)=O` [GWWRRWRRWWA], for which the MIC was determined as 0.5 µM (≈ 0.85 µg/mL) in test [10]; 4 µM (≈ 6.8 µg/mL) in test [11]; 2 µM (≈ 3.4 µg/mL) in [12]; 4 µM (≈ 6.8 µg/mL) in test [13]; 2 µM (≈ 3.4 µg/mL) in test [14]; 2 µM (≈ 3.4 µg/mL) in test [15]. Moreover, the MIC in test [16] was determined as 2 µM (≈ 3.4 µg/mL); in test [17] it was 4 µM (≈ 6.8 µg/mL); in test [18] it was 8 µM (≈ 13.6 µg/mL); in test [19] it was 2 µM (≈ 3.4 µg/mL); in [20] it was 4 µM (≈ 6.8 µg/mL); in test [21], 1 µM (≈ 1.7 µg/mL). In addition, the MIC in test [22] was determined as 2 µM (≈ 3.4 µg/mL); in test [23], 4 µM (≈ 6.8 µg/mL); in [7], 2 µM (≈ 3.4 µg/mL); in test [24], 2 µM (≈ 3.4 µg/mL); in test [25] it was 2 µM (≈ 3.4 µg/mL).

Consider `CC(C)C[C@H](NC(=O)[C@H](CCCCN)NC(=O)[C@H](CCCCN)NC(=O)[C@H](CC(C)C)NC(=O)[C@H](CCCN=C(N)N)NC(=O)[C@H](CS)NC(=O)[C@H](C)NC(=O)[C@H](CC(C)C)NC(=O)[C@H](CCCCN)NC(=O)[C@H](CCCCN)NC(=O)[C@H](CC(C)C)NC(=O)[C@H](CCCN=C(N)N)NC(=O)[C@H](CS)NC(=O)[C@H](C)NC(=O)[C@H](CC(C)C)NC(=O)[C@H](CCCCN)NC(=O)[C@H](CCCCN)NC(=O)[C@@H](N)CC(C)C)C(=O)N[C@@H](C)C(=O)N[C@@H](CS)C(=O)N[C@@H](CCCN=C(N)N)C(N)=O` [LKKLACRLKKLACRLKKLACR], for which the MIC in [3] is 8 µM (≈ 19.7 µg/mL); in [26], 8 µM and 16 µM; in test [15], 4 µM (≈ 9.83 µg/mL); in test [17] it was 4 µM (≈ 9.83 µg/mL); in [27], 8 µM (≈ 19.7 µg/mL); in test [19], 2 µM (≈ 4.91 µg/mL). Besides, the MIC is 16 µM (≈ 39.3 µg/mL) in test [20]; 16 µM (≈ 39.3 µg/mL) in [22]; 8 µM (≈ 19.7 µg/mL) in test [28]; 4 µM (≈ 9.83 µg/mL) in test [23]; 1 µM (≈ 2.46 µg/mL) in test [29]; 4 µM (≈ 9.83 µg/mL) in [30]. In addition, the MIC in test [7] turned out to be 16 µM (≈ 39.3 µg/mL); in test [31], 2 µM (≈ 4.91 µg/mL); in test [25], 4 µM (≈ 9.83 µg/mL).

Regarding `C[C@H](NC(=O)[C@H](CCCN=C(N)N)NC(=O)[C@H](Cc1c[nH]c2ccccc12)NC(=O)[C@H](CCCN=C(N)N)NC(=O)[C@H](Cc1c[nH]c2ccccc12)NC(=O)[C@H](Cc1c[nH]c2ccccc12)NC(=O)[C@H](Cc1c[nH]c2ccccc12)NC(=O)[C@H](CCCN=C(N)N)NC(=O)[C@H](Cc1c[nH]c2ccccc12)NC(=O)[C@@H](N)CCCN=C(N)N)C(N)=O` [RWRWWWRWRA], the MIC was 2 µM (≈ 3.29 µg/mL) in test [10]; 8 µM (≈ 13.2 µg/mL) in test [11]; 1 µM (≈ 1.64 µg/mL) in test [12]; 2 µM (≈ 3.29 µg/mL) in test [13]; 16 µM (≈ 26.3 µg/mL) in test [14]; 2 µM (≈ 3.29 µg/mL) in test [15]. The MIC in [16] came to 8 µM (≈ 13.2 µg/mL); in [17], 8 µM (≈ 13.2 µg/mL); in test [18], 2 µM (≈ 3.29 µg/mL); in [19] it was 2 µM (≈ 3.29 µg/mL); in test [20] it was 4 µM (≈ 6.58 µg/mL); in test [21], 1 µM (≈ 1.64 µg/mL). Also, the minimal inhibitory concentration (MIC) was found to be 4 µM (≈ 6.58 µg/mL) in [22]; 4 µM (≈ 6.58 µg/mL) in test [23]; 2 µM (≈ 3.29 µg/mL) in [7]; 2 µM (≈ 3.29 µg/mL) in test [24]; 8 µM (≈ 13.2 µg/mL) in test [25].

`CC[C@H](C)[C@H](NC(=O)[C@H](CCCN=C(N)N)NC(=O)[C@H](CCCN=C(N)N)NC(=O)[C@@H]1CCCN1C(=O)[C@@H]1CCCN1C(=O)[C@H](CCCN=C(N)N)NC(=O)[C@@H]1CCCN1C(=O)[C@H](CCCN=C(N)N)NC(=O)[C@@H]1CCCN1C(=O)[C@H](CC(C)C)NC(=O)[C@H](Cc1ccc(O)cc1)NC(=O)[C@@H]1CCCN1C(=O)[C@@H]1CCCN1C(=O)[C@H](CCCCN)NC(=O)[C@H](CC(=O)O)NC(=O)[C@@H](N)C(C)C)C(=O)N[C@@H](Cc1ccc(O)cc1)C(=O)N[C@@H](CCCCN)C(=O)N[C@@H](CCCN=C(N)N)C(=O)NCC(=O)O` [VDKPPYLPRPRPPRRIYKRG] registered a minimum inhibitory concentration (MIC) in test [32] of 0.106 µM (≈ 0.26 µg/mL).

As for `CC(C)C[C@H](NC(=O)[C@H](Cc1ccc(O)cc1)NC(=O)[C@@H]1CCCN1C(=O)[C@@H]1CCCN1C(=O)[C@H](CCCCN)NC(=O)[C@H](CC(=O)O)NC(=O)[C@@H](N)C(C)C)C(=O)N1CCC[C@H]1C(=O)N[C@@H](CCCN=C(N)N)C(=O)N1CCC[C@H]1C(=O)N[C@@H](CCCN=C(N)N)C(=O)N1CCC[C@H]1C(=O)N1CCC[C@H]1C(=O)N[C@@H](CCCN=C(N)N)C(=O)N[C@@H](CCCN=C(N)N)C(=O)N[C@@H](CCCCN)C(=O)N[C@@H](Cc1ccc(O)cc1)C(=O)N[C@@H](CC(N)=O)C(=O)N[C@@H](CCCN=C(N)N)C(=O)NCC(=O)O` [VDKPPYLPRPRPPRRKYNRG], in test [32], the MIC stood at 0.0487 µM (≈ 0.12 µg/mL).
